Results from patent US20110178016A1, “PULSE PARATHYROID HORMONE FOR TREATMENT OF THE HEM[…], STROMAL CELL LOSS, AND VASCULAR INJURY RESULTING FROM ACUTE EXPOSURE TO LETHAL RADIATION” (priority 2008, published 2011).
Entries after “also recorded” stand apart in the source; their conditions may differ.

Key:
[1] = test system: macaque monkeys following chemo-ablative therapy and MHC mis-matched allogeneic stem cell transplant; assay: Daily PTH after chemo-ablative conditioning and MHC mismatched allogeneic stem cell transplant; type: in vivo
Source text: A previously unrecognized role for PTH on mitigation of myelosuppression in macaque monkeys is described. Following chemo-ablative therapy and MHC mis-matched allogeneic stem cell transplant, animals were randomized to daily PTH treatment (5 mcg/kg/day subcutaneously) or placebo. […] Following myeloablation, PTH may act to increase megakaryopoiesis through increased production of HSC.
Bone marrow transplant studies by Calvi and colleagues characterized this process in the syngeneic mouse model of osteoblastic activation. To see if PTH could enhance allogeneic stem cell engraftment in nonhuman primates (monkeys), donors were MHC mismatched based on recipient proliferation against donor cells in the mixed lymphocyte culture and by disparity at the class I antigen, Bw6. This disparity permitted tracking of Bw6+ donor cells following transplantation into Bw6-recipients. Eight control recipients were conditioned with thymoglobulin, rituxan, fludarabine, and melphalan. Six animals received the conditioning regimen supplemented with parathyroid hormone beginning on the first day of the conditioning regimen and administered daily at a dose of 5 micrograms/kg subcutaneously. An allogeneic stem cell transplant consisting of 2−4×10^6 CD34+cells/kg was administered on day 0. Outcome measures included PTH levels, CBCs, and donor engraftment via flow cytometry.

[2] = Serum PTH levels in mice after final dose (Mesoscale); type: in vivo; conditions: 400 mcg/kg PTH, final dose on day 28
Procedure: (§1) Bone marrow was analyzed for colony forming units (CFU) (FIGS. 9A and 9B), hematopoietic stem cell content. Serum was analyzed for PTH levels on the final day of the study to determine the duration of detectable PTH in the serum following the final dose.

[3] = test system: rat; conditions: prolonged daily dosing, 4 months-2 years; cited from earlier work
[4] = test system: bone marrow colony forming units / hematopoietic stem cells; assay: Bone marrow colony forming units and hematopoietic stem cell content in irradiated mice; type: in vivo, B6 mice; conditions: 772 cGy
Procedure: In a second experiment, a sub-group of animals were euthanized on day 7, n=3 per cohort. Bone marrows were flushed and CFUs were performed.
B6 mice underwent 772 cGy irradiation and a daily total dose of 400 mcg/kg/day of PTH.
One group of animals was euthanized on day 3 (n=3) one group on day 7 (n=4) and one group (n=3) on day 28.
as §1
Mice underwent exposure to 772 cGy radiation and were randomized to treatment of daily PTH 400 mcg/kg or saline. On days 3 (n=3) and 7 (n=4) bone marrow was analyzed for colony forming units.
Following irradiation with 772 cGy, mice underwent bone marrow analysis on days 3 (n=3) or 7 (n=4) for hematopoietic stem cell content. […] (FIG. 11)

[5] = test system: cynomolgus monkeys; assay: Toxicity studies of a 21 day course of PTH in monkeys (cardiac monitoring, serum calcium, kidney MRI); type: in vivo
Procedure: Two cynomolgus monkeys (hereafter referred to as CYNOs) were treated with a 21 day course of daily subcutaneous PTH at either 100 mcg/kg (monkey 7801) or 50 mcg/kg (monkey 7872). Hematopoietic outcome measures included:
(d) MRI of the kidneys upon completion of the 21 day course.
Three cynomolgus monkeys (hereafter referred to as CYNOs) were treated with a 21 day course of daily subcutaneous PTH at either 50 ug/kg (7872), 100 ug/kg (7801), or 250 ug/kg (7876).
Two were irradiated (7801 and 7875) at a lethal dose of 682 cGy and administered 100 ug/kg. Of note, 7801 underwent a washout period prior to undergoing irradiation and subsequent PTH therapy
Outcome measures included:
(a) continuous cardiac monitoring and serum calcium
(e) MRI of the kidneys upon completion of the 21 day course.

[6] = macaques, PTH 5 mcg/kg/day sc, statistical significance by 4 weeks
[7] = CYNOs, 21 day course, 100 mcg/kg or 50 mcg/kg
[8] = highest dose, 250 ug/kg, administered for 21 days

CC[C@H](C)[C@H](NC(=O)[C@H](CCC(=O)O)NC(=O)[C@H](CO)NC(=O)[C@@H](NC(=O)[C@@H](N)CO)C(C)C)C(=O)N[C@@H](CCC(N)=O)C(=O)N[C@@H](CC(C)C)C(=O)N[C@@H](CCSC)C(=O)N[C@@H](Cc1cnc[nH]1)C(=O)N[C@@H](CC(N)=O)C(=O)N[C@@H](CC(C)C)C(=O)NCC(=O)N[C@@H](CCCCN)C(=O)N[C@@H](Cc1cnc[nH]1)C(=O)N[C@@H](CC(C)C)C(=O)N[C@@H](CC(N)=O)C(=O)N[C@@H](CO)C(=O)N[C@@H](CCSC)C(=O)N[C@@H](CCC(=O)O)C(=O)N[C@@H](CCCN=C(N)N)C(=O)N[C@H](C(=O)N[C@@H](CCC(=O)O)C(=O)N[C@@H](Cc1c[nH]c2ccccc12)C(=O)N[C@@H](CC(C)C)C(=O)N[C@@H](CCCN=C(N)N)C(=O)N[C@@H](CCCCN)C(=O)N[C@@H](CCCCN)C(=O)N[C@@H](CC(C)C)C(=O)N[C@@H](CCC(N)=O)C(=O)N[C@@H](CC(=O)O)C(=O)N[C@H](C(=O)N[C@@H](Cc1cnc[nH]1)C(=O)N[C@@H](CC(N)=O)C(=O)N[C@@H](Cc1ccccc1)C(=O)O)C(C)C)C(C)C [PTH, Teriparatide]
hemoglobin (serial CBCs) ([1]; PTH group vs control group): no significant difference | engrafting donor B cells ([1]; macaques, PTH 5 mcg/kg/day sc): significantly increased | host (recipient) T cells ([1]; macaques, PTH 5 mcg/kg/day sc): no significant increase; also recorded: little or no effect | host or donor myeloid lineage CD14 or CD11b+ cells ([1]; macaques, PTH 5 mcg/kg/day sc): no significant increase | engrafting donor T cells (CD4 and CD8 subsets) ([1]; macaques, PTH 5 mcg/kg/day sc vs control): significant increases; also recorded: significantly increased; also recorded: increased over control animals | engrafting donor CD34+ cells [1, 6]: significantly increased; also recorded: significant increases | host CD34+ stem cells [1, 6]: significantly increased; also recorded: significant increases | platelet counts in peripheral blood ([1]; macaques, PTH 5 mcg/kg/day subcutaneously vs untreated controls, first observed 7 days after PTH therapy): statistically significant increase; also recorded: increased levels of platelets | recipient granulocytes or natural killer cells ([1]; macaques, PTH 5 micrograms/kg sc daily): No effect | iliac crest bone biopsy findings after vs before PTH treatment ([1]; monkeys 7150 and 7154, 5 weeks after PTH treatment): increased cortical bone, increased osteoblasts, and loss of adiposity; also recorded: adiposity was reduced, and cortical bone formation increased | PTH in sera after final PTH dose [2]: some persistence of PTH at 24 hours | time of return of serum PTH to baseline after final dose [2]: 48 h | doses at which toxicity was observed [3]: exceeding 75 mcg/kg | CFU capabilities of bone marrow ([4]; PTH 400 mcg/kg/day x 7 days, euthanized on day 7, n=3 per cohort, compared to other groups): greatest preservation of CFU capabilities; also recorded: preserves CFU | CFU-GM and CFU-M in bone marrow ([4]; daily PTH 400 mcg/kg vs saline, days 3 and 7): increased with PTH therapy | bone marrow hematopoietic stem cell content, treatment vs control ([4]; daily PTH 400 mcg/kg, day 3): no statistical significance | increase in bone marrow stem cell content ([4]; daily PTH 400 mcg/kg, day 7): 5 fold | BFU and CFU-GEMM in bone marrow ([4]; daily PTH 400 mcg/kg, trend more pronounced on day 7): increased with PTH treatment | tolerability ([5]; 250 ug/kg up to 19 days, non-irradiated cynomolgus monkey): well tolerated | Cardiac monitoring [5, 7]: some shortening of the Qt segment but no life threatening arrythmias | serum calcium peak [5, 7]: ≤ 11.5 mg/dL | time for serum calcium to return to normal range after dosing [5, 7]: 6 to 10 h | T wave height and ST-intervals over time [5, 8]: some decrease | arrhythmias [5, 8]: No life-threatening arrhythmias | tolerance in toxicity studies ([5]; irradiated and non-irradiated monkeys, doses comparable to doses to ameliorate radiation damage): tolerated | serum calcium levels ([5]; irradiated monkeys 7875 and 7801, 100 ug/kg, exception day 19 for 7801): normal calcium levels except one timepoint | BUN or creatinine ([5]; monkeys 7801 (100 mcg/kg) and 7872 (50 mcg/kg), 21 day course): No change | MRI examination of the kidneys ([5]; monkeys 7801 (100 mcg/kg) and 7872 (50 mcg/kg), after 21 day course): no cystic degeneration or tumors | serum calcium level ([5]; non-irradiated animal 7876, 250 ug/kg, 21st day of dosing, with some somnolent behavior): 17 mg/dL | toxicity during the first 20 days of dosing ([5]; three non-irradiated cynomolgus monkeys, 50, 100, 250 ug/kg, calcium slightly elevated): did not experience toxicity
